# Laboratory results published in patent US20250255867A1 (Kadmon Corporation, LLC, priority 2022, published 2025).
# “And” between values parts separate entries of the source, which are not always exact repeats. Equal values may be shown once.
# Assays:
# Type in all cases: in vivo, human
# subjects with BOS [1] = assay: Example 3 combined analysis: lung-specific NIH response in BOS
# Experimental: Subjects enrolled in the clinical studies described in Examples 1 and 2 served as the population for the combined analysis.
# Patients with BOS were identified as: 1) % predicted forced expiratory volume in 1 second (% FEV1) of £79% at enrollment, and 2) clinician attribution of lung disease due to cGVHD.
# In Example 1, lung function assessments were conducted at baseline and on Day 1 of each cycle for patients with suspected of known lung involvement. In Example 2, lung function assessments were conducted at baseline and at the time of response assessments: Day 1 of cycles 2-5 and then on Day 1 of every other cycle thereafter.
# The severity of cGVHD was graded according to the 2014 NIH Consensus Criteria. […] According to these criteria, a complete response (CR) in the lung is defined as normal % FEV1 after previous involvement or in the absence of PFTs, a NIH lung Symptom Score of 0 after previous involvement. Partial response (PR) in the lung is defined as an increase by 10% predicted absolute value of % FEV1 or in the absence of PFTs, a decrease in NIH Lung Symptom Score by 1 or more points. Progression of lung disease is defined as a decrease by 10% predicted absolute value of % FEV1 or in the absence of PFTs, an increase in NIH Lung Symptom Score by 1 or more points, except 0 to 1.
# Baseline characteristics were reported descriptively. Univariable and multivariable logistic regression analysis was performed to investigate clinical factors (listed in Table 1) that were associated with NIH lung response. Correlation analysis was performed to assess correlation among lung response metrics. All testing was two-sided at the significance level of 0.05. All analyses were performed using SAS 9.3 (SAS Institute Inc., Cary, NC), and R v3.5.2 (the CRAN project).
# subjects with BOS [2] = assay: Example 3: Lee Symptom Scale lung score in BOS
# Text: Following the methodology used for the LSS, we identified a 10-point difference (half a standard deviation from baseline scores) as being a clinically meaningful organ-specific change in this dataset. (Lee S et al. Development and validation of a scale to measure symptoms of chronic graft-versus-host disease. Biol Blood Marrow Transplant 2002; 8 (8): 444-452; Teh C et al. Reliability and Validity of the Modified 7-Day Lee Chronic Graft-versus-Host Disease Symptom Scale. Biol Blood Marrow Transplant 2020; 26 (3): 562-567.) Forty subjects (68%) experienced a clinically meaningful improvement (10-point reduction) in the LSS lung score.
# patients with cGVHD = assay: Example 1: corticosteroid and calcineurin inhibitor sparing; details: for Participants who discontinued CNI, number / Participants who discontinued CNI, percent / Participants with reduction in CNI dose, number / Participants with reduction in CNI dose, percent: baseline up to EOT
# Experimental: Corticosteroid sparing. […] The mean corticosteroid dose was reduced by 45%. The median time to corticosteroid therapy discontinuation was 29 weeks (range, 8-77 weeks).
# Change from Baseline in Corticosteroids Dose. An EOT visit was performed within 3 days after the participant's last dose of study drug. Baseline value was defined as valid and last non-missing value obtained within 28 days prior to participant receiving first study medication. The mITT population was analyzed, with the ‘overall number of participants analyzed’=participants with available data for this outcome measure.
# Change from Baseline in Calcineurin Inhibitor (CNI). Calcineurin inhibitors included systemic tacrolimus and cyclosporine. Number of participants who took CNI at Baseline and had reduction and discontinuation in CNI use as compared to Baseline during the study are reported in this outcome measure. EOT visit was performed within 3 days after the participant's last dose of study drug. Baseline value was defined as valid and last non-missing value obtained within 28 days prior to participant receiving first study medication.
# [3] = NIH Lung Score at baseline 1, 30 subjects
# [4] = NIH Lung Score at baseline 2, 23 subjects
# [5] = NIH Lung Score at baseline 3, 6 subjects
# [6] = Total N=54, listed as belumosudil
smiles,measurement,setting,value
"CC(C)NC(=O)COc1cccc(-c2nc(Nc3ccc4[nH]ncc4c3)c3ccccc3n2)c1 [Belumosudil, 2-{3-[4-(1H-indazol-5-ylamino)-2-quinazolinyl]phenoxy}-N-(propan-2-yl) acetamide]","Best ORR for pulmonary cGVHD, NIH response criteria",subjects with BOS [1]; 59 subjects,32%
same,"PR for pulmonary cGVHD, NIH response criteria",subjects with BOS [1]; 59 subjects,17%
same,"Lung-specific NIH response, Best ORR",subjects with BOS [1]; [3],50%
same,"Lung-specific NIH response, CR rate",subjects with BOS [1]; [3],27%
same,"Lung-specific NIH response, PR rate",subjects with BOS [1]; [3],23%
same,"Lung-specific NIH response, Best ORR",subjects with BOS [1]; [4],17%
same,"Lung-specific NIH response, CR rate",subjects with BOS [1]; [4],4%
same,"Lung-specific NIH response, PR rate",subjects with BOS [1]; [4],13%
same,"Lung-specific NIH response, Best ORR",subjects with BOS [1]; [5],0%
same,"Lung-specific NIH response, CR rate",subjects with BOS [1]; [5],0%
same,"Lung-specific NIH response, PR rate",subjects with BOS [1]; [5],0%
same,"Lung-specific NIH response, Best ORR","subjects with BOS [1]; Total, 59 subjects",32%
same,"Lung-specific NIH response, CR rate","subjects with BOS [1]; Total, 59 subjects",15%
same,"Lung-specific NIH response, PR rate","subjects with BOS [1]; Total, 59 subjects",17%
same,Best lung ORR,subjects with BOS [1]; baseline NIH lung score 1,50%
same,Lung CR,subjects with BOS [1]; baseline NIH lung score 1,27%
same,Lung PR,subjects with BOS [1]; baseline NIH lung score 1,23%
same,Best lung ORR,subjects with BOS [1]; baseline NIH lung score 2,17%
same,Lung CR,subjects with BOS [1]; baseline NIH lung score 2,4%
same,Lung PR,subjects with BOS [1]; baseline NIH lung score 2,13%
same,"Best ORR for lung cGVHD, NIH response with PFTs alone",subjects with BOS [1]; in vivo,24%
same,"CR for lung cGVHD, PFTs alone",subjects with BOS [1]; in vivo,10%
same,"PR for lung cGVHD, PFTs alone",subjects with BOS [1]; in vivo,14%
same,Median time to first NIH lung response,"subjects with BOS [1]; range, 3-39",5 cycles
same,Median time to best NIH lung response,"subjects with BOS [1]; range, 3-41",7 cycles
same,Subjects with clinically meaningful improvement (10-point reduction) in LSS lung score,subjects with BOS [2]; 59 subjects,68%
same,Clinically meaningful improvement in LSS lung score,subjects with BOS [2]; baseline NIH lung score 1,66%
same,Clinically meaningful improvement in LSS lung score,subjects with BOS [2]; baseline NIH lung score 2,61%
same,Clinically meaningful improvement in LSS lung score,subjects with BOS [2]; baseline NIH lung score 3,100%
same,Clinically meaningful improvement in LSS lung score,subjects with BOS [2]; non-responders,68% and 67.5%
same,Clinically meaningful improvement in LSS lung score,subjects with BOS [2]; subjects with 35% best improvement in % FEV1,61%
same,Clinically meaningful improvement in LSS lung score,subjects with BOS [2]; subjects with <5% best improvement in % FEV1,69%
same,CS discontinuation,patients with cGVHD; Cohort 1 200 mg QD,"4 (24, 7 to 50) %"
same,"Mean percent change in CS dose from baseline, nonresponder",patients with cGVHD; Cohort 1 200 mg QD,−26%
same,"Mean percent change in CS dose from baseline, overall",patients with cGVHD; Cohort 1 200 mg QD,−50%
same,"Mean percent change in CS dose from baseline, responder",patients with cGVHD; Cohort 1 200 mg QD,−63%
same,Proportion with CS reduction,patients with cGVHD; Cohort 1 200 mg QD,"13 (76, 50 to %"
same,"Change From Baseline in Corticosteroids Dose, Mean (Standard Deviation)","patients with cGVHD; Cohort 1 200 mg QD, baseline to end of treatment",−0.110 (0.101) milligrams per kilogram per day
same,"Participants who discontinued CNI, number",patients with cGVHD; Cohort 1: 200 mg QD,0
same,"Participants who discontinued CNI, percent",patients with cGVHD; Cohort 1: 200 mg QD,(0%)
same,"Participants with reduction in CNI dose, number",patients with cGVHD; Cohort 1: 200 mg QD,5
same,"Participants with reduction in CNI dose, percent",patients with cGVHD; Cohort 1: 200 mg QD,(83%)
same,CS discontinuation,patients with cGVHD; Cohort 2 200 mg BID,"2 (13, 2 to 38) %"
same,"Mean percent change in CS dose from baseline, nonresponder",patients with cGVHD; Cohort 2 200 mg BID,−37%
same,"Mean percent change in CS dose from baseline, overall",patients with cGVHD; Cohort 2 200 mg BID,−36%
same,"Mean percent change in CS dose from baseline, responder",patients with cGVHD; Cohort 2 200 mg BID,−36%
same,Proportion with CS reduction,patients with cGVHD; Cohort 2 200 mg BID,"9 (56, 30 to 80) %"
same,"Participants who discontinued CNI, number",patients with cGVHD; Cohort 2: 200 mg BID,1
same,"Participants who discontinued CNI, percent",patients with cGVHD; Cohort 2: 200 mg BID,17%
same,"Participants with reduction in CNI dose, number",patients with cGVHD; Cohort 2: 200 mg BID,5
same,"Participants with reduction in CNI dose, percent",patients with cGVHD; Cohort 2: 200 mg BID,83%
same,CS discontinuation,patients with cGVHD; Cohort 3 400 mg QD,"4 (19, 5 to 42) %"
same,"Mean percent change in CS dose from baseline, nonresponder",patients with cGVHD; Cohort 3 400 mg QD,−19%
same,"Mean percent change in CS dose from baseline, overall",patients with cGVHD; Cohort 3 400 mg QD,−47%
same,"Mean percent change in CS dose from baseline, responder",patients with cGVHD; Cohort 3 400 mg QD,−63%
same,Proportion with CS reduction,patients with cGVHD; Cohort 3 400 mg QD,"14 (67, 43 to %"
same,"Participants who discontinued CNI, number",patients with cGVHD; Cohort 3: 400 mg QD,3
same,"Participants who discontinued CNI, percent",patients with cGVHD; Cohort 3: 400 mg QD,27%
same,"Participants with reduction in CNI dose, number",patients with cGVHD; Cohort 3: 400 mg QD,6
same,"Participants with reduction in CNI dose, percent",patients with cGVHD; Cohort 3: 400 mg QD,55%
same,"Mean percent change in CS dose from baseline, nonresponder",patients with cGVHD; Total,−26%
same,"Mean percent change in CS dose from baseline, overall",patients with cGVHD; Total,−45%
same,"Mean percent change in CS dose from baseline, responder",patients with cGVHD; Total,−55%
same,CS discontinuation,patients with cGVHD; Total N=54,Approximately 20%
same,CS discontinuation,"patients with cGVHD; Total N=54, listed as KD025","10 (19, 9 to 31) %"
same,Proportion with CS reduction,"patients with cGVHD; Total N=54, listed as KD025","36 (67, 53 to %"
same,CS discontinuation,patients with cGVHD; [6],19%
same,Proportion with CS reduction,patients with cGVHD; [6],67%
same,Mean corticosteroid dose reduction,patients with cGVHD; all patients,45%
same,Mean corticosteroid dose reduction,patients with cGVHD; nonresponders,26%
same,Median time to corticosteroid therapy discontinuation,"patients with cGVHD; range, 8-77 weeks",29 weeks
same,Mean corticosteroid dose reduction,patients with cGVHD; responders,55%
